Here are results for 2 compounds from article PMC9688530, “Development of Ic-ELISA and Colloidal Gold Lateral Flow Immunoassay for the Determination of Cypermethrin in Agricultural Samples” (Biosensors, 2022).

The test system of one series is anti-CYP mAb. Nature of the series: colloidal gold LFIA strip. Format: binding, mouse. Conditions: for CR of LFIA: CR = vLOD of CYP/vLOD of analogue × 100%; for visual limit of detection (vLOD): optimal buffer. On the procedure: Colloidal gold particles were synthesized with trisodium citrate as a reducing agent according to our previous work. For the preparation of colloidal gold mAb, 6.65 μg/mL anti-CYP mAbs were added to the colloidal gold solution adjusted to pH 8.2 using 0.2 mol/L K2CO3 with shaking at room temperature for 1 h. BSA (1%) was used to block free colloidal gold particles. After 1 h, the mixture was centrifuged at 12,000 revolutions per minute (RPM) for 15 min to remove free anti-CYP mAbs. The centrifuged deposits were resuspended using one-tenth of the original volume of sodium borate solution (0.01 mol/L) containing 2% BSA and 3% sucrose and preserved at 4 °C.
As depicted in Figure 1A, the LFIA strip was assembled into four components. The center section of a PVC plate was affixed to an NC membrane. The sample pad and absorption pad were stuck on both ends of the PVC plate, and both overlapped with the NC membrane by 1 mm. A total of 2 mg/mL of hapten 5-BSA and 0.5 mg/mL of GAMA were sprayed onto the NC membrane as the test line and control line, respectively, with 5 mm intervals by an automatic dispenser. After drying at 37 °C for 12 h, the fabricated cards were cut into 4 mm wide LFIA strips.
One hundred microliters of the CYP standard solution and 4 μL of the colloidal gold mAb solution were added into a micropore and mixed. After 5 min, an LFIA strip was inserted into the mixture solution. During the mixed solution migration from the sample pad to the absorbent pad, colloidal gold mAb was captured by the T and C lines, resulting in the appearance of color bands within 10 min. When the T line disappeared or the color intensity of the T line was lower than that of the C line, the result was positive (Figure 1B,C). When the color intensity of the T line was not less than that of the C line, the result was negative (Figure 1D).
The sensitivity of the LFIA strip was evaluated by a series of CYP standard solutions (0.7, 0.6, 0.5, 0.4, 0.3, 0.2, 0.1, 0 μg/mL). For qualitative analysis, the sensitivity of the LFIA strip was appraised by the visual LOD (vLOD) and the cut-off value. The vLOD is the lowest concentration of CYP at which the lighter color of the T line is observed compared to the C line. The cut-off value is the minimum CYP concentration at which no color band appears on the T line.
The CRs of the LFIA were calculated with the following equation:CR (%) = (vLOD of CYP/vLOD of analogues) × 100%.

The test system of the next series is anti-CYP mAb 2G7H9. Nature of the series: ic-ELISA based on mAb 2G7H9. The note with it: CR = IC50 of CYP/IC50 of analogue × 100%. Format: binding, mouse. On the procedure: The ic-ELISA procedure was executed according to previous studies. Each well of the ELISA plate was coated with 100 μL of coating antigen diluted with carbonate buffer (0.05 mol/L, pH 9.6) at 4 °C overnight. After washing three times with phosphate-buffered saline (PBS, 0.01 mol/L, pH 7.4) containing 1‰ Tween-20, the wells were blocked with 200 μL of 5% skim milk powder in PBS at 37 °C for two hours. After the same washing procedure, 50 μL of CYP standard solution and 50 μL of mAb were pipetted into each well and incubated at 37 °C for one hour. After washing five times, 100 μL per well of 0.5‰ horseradish peroxidase-labeled goat anti-mouse IgG antibody in PBS was added and incubated at 37 °C for one hour. After the wells were washed five times, 100 μL per well of fresh substrate solution (0.1 mg/mL 3,3′,5,5′-tetramethylbenzidine and 0.024‰ H2O2 in 0.1 M citrate acid buffer) was added to react at 37 °C for 15 min. Then, 50 μL per well of 0.2 mol/L H2SO4 was used to stop the reaction, and the absorbances were read at 450 nm with a microplate reader.
Under the optimal conditions, a standard curve was constructed using a series of concentrations of standard solutions (50, 25, 12.5, 6.25, 3.13, 1.56, 0.78, 0.39 and 0.20 ng/mL) to assess the sensitivity of ic-ELISA. The IC50 and linear range (IC10–IC90) were calculated by a logistic equation established with Origin Pro 8.0.
The CRs of the ic-ELISA were calculated with the following equation:CR (%) = (IC50 of CYP/IC50 of analogues) × 100%.
Background: An ELISA detects its analyte on a solid surface through an enzyme-linked reagent.

As for `CC1(C)C(C=C(Cl)Cl)C1C(=O)OC(C#N)c1ccc(F)c(Oc2ccccc2)c1` (stereo not drawn) [cyfluthrin], in the series with anti-CYP mAb, the “CR of LFIA” value was found to be 30% and the “visual limit of detection (vLOD)” value is 1 µg/mL. The “Cross-reactivity rate (%) of ic-ELISA” value with anti-CYP mAb 2G7H9 was 31.09%.
As for `CC1(C)C(/C=C(\Cl)C(F)(F)F)C1C(=O)OC(C#N)c1cccc(Oc2ccccc2)c1` (stereo not drawn) [cyhalothrin], in the series with anti-CYP mAb, the “CR of LFIA” value is 3% and the “visual limit of detection (vLOD)” value was determined as 10 µg/mL. Moreover, in the series with anti-CYP mAb 2G7H9, the “Cross-reactivity rate (%) of ic-ELISA” value stood at 16.15%.
